Measured values as given in PubChem BioAssay (NCI).
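GI50 marks 50% less growth. TGI is the concentration that stops growth completely.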

Experiments:
Assay in all cases: NCI tumour cell line growth inhibition, 384-well format
UO-31 renal = tested on: UO-31 renal
SK-MEL-28 melanoma = tested on: SK-MEL-28 melanoma
HOP-62 NSCLC = tested on: HOP-62 NSCLC
KM12 colon = tested on: KM12 colon
ACHN renal = tested on: ACHN renal
NCI-H23 lung = tested on: NCI-H23 lung
A549 NSCLC = tested on: A549 NSCLC
HOP-92 NSCLC = tested on: HOP-92 NSCLC
NCI-H226 lung = tested on: NCI-H226 lung
MDA-MB-231 breast = tested on: MDA-MB-231 breast
RXF 393 renal = tested on: RXF 393 renal
LOX IMVI melanoma = tested on: LOX IMVI melanoma
K-562 leukemia = tested on: K-562 leukemia
SNB-19 CNS = tested on: SNB-19 CNS
NCI-H322M lung = tested on: NCI-H322M lung
MDA-MB-435 melanoma = tested on: MDA-MB-435 melanoma
HCT-15 colon = tested on: HCT-15 colon
PC-3 prostate = tested on: PC-3 prostate
SN12C renal = tested on: SN12C renal
SF-539 CNS = tested on: SF-539 CNS
MALME-3M melanoma = tested on: MALME-3M melanoma
HT29 colon = tested on: HT29 colon
786-0 renal = tested on: 786-0 renal
OVCAR-5 ovarian = tested on: OVCAR-5 ovarian
SNB-75 CNS = tested on: SNB-75 CNS
SF-268 CNS = tested on: SF-268 CNS
OVCAR-3 ovarian = tested on: OVCAR-3 ovarian
RPMI-8226 leukemia = tested on: RPMI-8226 leukemia
HL-60(TB) leukemia = tested on: HL-60(TB) leukemia
SW-620 colon = tested on: SW-620 colon
T-47D breast = tested on: T-47D breast
CAKI-1 renal = tested on: CAKI-1 renal
HCC-2998 colon = tested on: HCC-2998 colon
SF-295 CNS = tested on: SF-295 CNS
SK-OV-3 ovarian = tested on: SK-OV-3 ovarian
NCI/ADR-RES ovarian = tested on: NCI/ADR-RES ovarian
A498 renal = tested on: A498 renal
MOLT-4 leukemia = tested on: MOLT-4 leukemia
NCI-H460 NSCLC = tested on: NCI-H460 NSCLC
SR leukemia = tested on: SR leukemia
MCF7 breast = tested on: MCF7 breast
SK-MEL-5 melanoma = tested on: SK-MEL-5 melanoma
UACC-257 melanoma = tested on: UACC-257 melanoma
HS 578T breast = tested on: HS 578T breast
COLO 205 colon = tested on: COLO 205 colon
OVCAR-8 ovarian = tested on: OVCAR-8 ovarian
UACC-62 melanoma = tested on: UACC-62 melanoma
CCRF-CEM leukemia = tested on: CCRF-CEM leukemia
TK-10 renal = tested on: TK-10 renal
IGROV1 ovarian = tested on: IGROV1 ovarian
MDA-MB-468 breast = tested on: MDA-MB-468 breast
BT-549 breast = tested on: BT-549 breast
DU-145 prostate = tested on: DU-145 prostate
M14 melanoma = tested on: M14 melanoma
NCI-H522 lung = tested on: NCI-H522 lung
OVCAR-4 ovarian = tested on: OVCAR-4 ovarian
EKVX NSCLC = tested on: EKVX NSCLC

`C[C@@H]1OCC2(CCN(c3cnc(Sc4ccnc(N)c4Cl)c(N)n3)CC2)[C@@H]1N` gave a GI50 (UO-31 renal) of 27.6 µM, a TGI (UO-31 renal) greater than 100 µM and a GI50 (SK-MEL-28 melanoma) greater than 100 µM. The TGI (SK-MEL-28 melanoma) was greater than 100 µM, the GI50 (HOP-62 NSCLC) was greater than 100 µM and the TGI (HOP-62 NSCLC) was greater than 100 µM. The GI50 (KM12 colon) was 0.621 µM, the TGI (KM12 colon) was greater than 100 µM and the GI50 (ACHN renal) was 4.99 µM. For the same compound, the TGI (ACHN renal) was greater than 100 µM, the GI50 (NCI-H23 lung) was 0.0797 µM and the TGI (NCI-H23 lung) was 44.2 µM. The GI50 (A549 NSCLC) was greater than 100 µM, the TGI (A549 NSCLC) was greater than 100 µM and the GI50 (HOP-92 NSCLC) was 0.0569 µM. It also gave a TGI (HOP-92 NSCLC) of 1.05 µM, a GI50 (NCI-H226 lung) of 1.18 µM and a TGI (NCI-H226 lung) greater than 100 µM. For the same compound, the GI50 (MDA-MB-231 breast) was greater than 100 µM, the TGI (MDA-MB-231 breast) was greater than 100 µM and the GI50 (RXF 393 renal) was greater than 100 µM. The TGI (RXF 393 renal) was greater than 100 µM, the GI50 (LOX IMVI melanoma) was greater than 100 µM and the TGI (LOX IMVI melanoma) was greater than 100 µM. It also gave a GI50 (K-562 leukemia) of 0.148 µM, a TGI (K-562 leukemia) greater than 100 µM and a GI50 (SNB-19 CNS) greater than 100 µM. The TGI (SNB-19 CNS) was greater than 100 µM, the GI50 (NCI-H322M lung) was 0.234 µM and the TGI (NCI-H322M lung) was greater than 100 µM. The GI50 (MDA-MB-435 melanoma) was greater than 100 µM, the TGI (MDA-MB-435 melanoma) was greater than 100 µM and the GI50 (HCT-15 colon) was greater than 100 µM. It also gave a TGI (HCT-15 colon) greater than 100 µM, a GI50 (PC-3 prostate) greater than 100 µM and a TGI (PC-3 prostate) greater than 100 µM. It also gave a GI50 (SN12C renal) of 3.87 µM, a TGI (SN12C renal) greater than 100 µM and a GI50 (SF-539 CNS) of 34.7 µM. For the same compound, the TGI (SF-539 CNS) was greater than 100 µM, the GI50 (MALME-3M melanoma) was greater than 100 µM and the TGI (MALME-3M melanoma) was greater than 100 µM. It also gave a GI50 (HT29 colon) greater than 100 µM, a TGI (HT29 colon) greater than 100 µM and a GI50 ([…]-0 renal) greater than 100 µM. It also gave a TGI (786-0 renal) greater than 100 µM, a GI50 (OVCAR-5 ovarian) greater than 100 µM and a TGI (OVCAR-5 ovarian) greater than 100 µM. The GI50 (SNB-75 CNS) was 51.2 µM, the TGI (SNB-75 CNS) was greater than 100 µM and the GI50 (SF-268 CNS) was greater than 100 µM. For the same compound, the TGI (SF-268 CNS) was greater than 100 µM, the GI50 (OVCAR-3 ovarian) was 77.9 µM and the TGI (OVCAR-3 ovarian) was greater than 100 µM. For the same compound, the GI50 (RPMI-8226 leukemia) was 21 µM, the TGI (RPMI-8226 leukemia) was greater than 100 µM and the GI50 (HL-60(TB) leukemia) was 65.1 µM. For the same compound, the TGI (HL-60(TB) leukemia) was greater than 100 µM, the GI50 (SW-620 colon) was greater than 100 µM and the TGI (SW-620 colon) was greater than 100 µM. It also gave a GI50 (T-47D breast) of 29.3 µM, a TGI (T-47D breast) greater than 100 µM and a GI50 (CAKI-1 renal) of 0.426 µM. For the same compound, the TGI (CAKI-1 renal) was greater than 100 µM, the GI50 (HCC-2998 colon) was greater than 100 µM and the TGI (HCC-2998 colon) was greater than 100 µM. For the same compound, the GI50 (SF-295 CNS) was greater than 100 µM, the TGI (SF-295 CNS) was greater than 100 µM and the GI50 (SK-OV-3 ovarian) was 25.2 µM. For the same compound, the TGI (SK-OV-3 ovarian) was greater than 100 µM, the GI50 (NCI/ADR-RES ovarian) was 17.7 µM and the TGI (NCI/ADR-RES ovarian) was greater than 100 µM. It also gave a GI50 (A498 renal) of 4.18 µM, a TGI (A498 renal) greater than 100 µM and a GI50 (MOLT-4 leukemia) of 35.9 µM. For the same compound, the TGI (MOLT-4 leukemia) was greater than 100 µM, the GI50 (NCI-H460 NSCLC) was greater than 100 µM and the TGI (NCI-H460 NSCLC) was greater than 100 µM. For the same compound, the GI50 (SR leukemia) was 0.519 µM, the TGI (SR leukemia) was 13.4 µM and the GI50 (MCF7 breast) was greater than 100 µM. It also gave a TGI (MCF7 breast) greater than 100 µM, a GI50 (SK-MEL-5 melanoma) greater than 100 µM and a TGI (SK-MEL-5 melanoma) greater than 100 µM. It also gave a GI50 (UACC-257 melanoma) greater than 100 µM, a TGI (UACC-257 melanoma) greater than 100 µM and a GI50 (HS 578T breast) greater than 100 µM. It also gave a TGI (HS 578T breast) greater than 100 µM, a GI50 (COLO 205 colon) greater than 100 µM and a TGI (COLO 205 colon) greater than 100 µM. It also gave a GI50 (OVCAR-8 ovarian) of 44.3 µM, a TGI (OVCAR-8 ovarian) greater than 100 µM and a GI50 (UACC-62 melanoma) greater than 100 µM. The TGI (UACC-62 melanoma) was greater than 100 µM, the GI50 (CCRF-CEM leukemia) was 32 µM and the TGI (CCRF-CEM leukemia) was greater than 100 µM. The GI50 (TK-10 renal) was 3.58 µM, the TGI (TK-10 renal) was greater than 100 µM and the GI50 (IGROV1 ovarian) was 0.918 µM. It also gave a TGI (IGROV1 ovarian) greater than 100 µM, a GI50 (MDA-MB-468 breast) of 0.0533 µM and a TGI (MDA-MB-468 breast) of 0.355 µM. It also gave a GI50 (BT-549 breast) of 35.1 µM, a TGI (BT-549 breast) greater than 100 µM and a GI50 (DU-145 prostate) greater than 100 µM. For the same compound, the TGI (DU-145 prostate) was greater than 100 µM, the GI50 (M14 melanoma) was greater than 100 µM and the TGI (M14 melanoma) was greater than 100 µM. For the same compound, the GI50 (NCI-H522 lung) was 1.44 µM, the TGI (NCI-H522 lung) was greater than 100 µM and the GI50 (OVCAR-4 ovarian) was greater than 100 µM. The TGI (OVCAR-4 ovarian) was greater than 100 µM, the GI50 (EKVX NSCLC) was 16.5 µM and the TGI (EKVX NSCLC) was greater than 100 µM.
